# From patent US9132140B2, “Boronic acid derivatives and therapeutic uses thereof” (Rempex Pharmaceuticals, Inc., priority 2013, dated 2015)
# What was measured:
# ECM6711 (pUCP24-VIM-1) = assay: microbe, parasite or virus in culture; assay type: cell-based, E. coli; conditions: Escherichia coli, read-out: Imipenem MIC Alone
# EA1019 (SHV-5, VIM-1) = assay type: cell-based, Enterobacter aerogenes
# Source text: (§1) Several strains simultaneously expressing both class A and class B carbapenemases, which were constructed using conjugation, were also included in the panel.
# KPM1099 (NDM, KPC) = assay type: cell-based, Klebsiella pneumoniae
# Source text: as §1
# KPM1109 (NDM, KPC) = assay type: cell-based, Klebsiella pneumoniae
# Source text: as §1
# KPM1110 (NDM, KPC) = assay type: cell-based, Klebsiella pneumoniae
# Source text: as §1
# KP1014 (Vim-1, TEM, SHV) = assay type: cell-based, Klebsiella pneumoniae
# Source text: as §1
# KP1097 (IMP-1 SHV) = assay type: cell-based, Klebsiella pneumoniae
# Source text: as §1
# KP1065 (VIM-1, SHV-11) = assay type: cell-based, Klebsiella pneumoniae
# Source text: as §1
# KPM1123 (KPC-2 TEM SHV) = assay type: cell-based, Klebsiella pneumoniae
# Source text: as §1
# KPM1111 (NDM, KPC) = assay type: cell-based, Klebsiella pneumoniae
# Source text: as §1
# [1] = system: KPM1347 (NDM-1 SHV CTX-M-15); assay type: cell-based, Klebsiella pneumoniae
# Source text: as §1
# [2] = system: KP1081 (NDM-1, TEM-1, SHV-11, CMY-6, CTX-M-15); assay type: cell-based, Klebsiella pneumoniae
# Source text: as §1
# KP1059 (VIM-1, SHV-11) = assay type: cell-based, Klebsiella pneumoniae
# Source text: as §1
# KP1061 (KPC TEM SHV) = assay type: cell-based, Klebsiella pneumoniae
# Source text: as §1
# KP1004 (KPC TEM SHV) = assay type: cell-based, Klebsiella pneumoniae
# Source text: as §1
# KPM1345 (VIM-1 SHV) = assay type: cell-based, Klebsiella pneumoniae
# Source text: as §1
# KP1064 (KPC TEM SHV) = assay type: cell-based, Klebsiella pneumoniae
# Source text: as §1
# [3] = system: KPM1346 (NDM-1 TEM SHV CTX-M-15 CMY); assay type: cell-based, Klebsiella pneumoniae
# Source text: as §1
# KP1054 (VIM-1, SHV-11) = assay type: cell-based, Klebsiella pneumoniae
# Source text: as §1
# KPM1107 (NDM, KPC) = assay type: cell-based, Klebsiella pneumoniae
# Source text: as §1
# KPM1108 (NDM, KPC) = assay type: cell-based, Klebsiella pneumoniae
# Source text: as §1
# KPM1344 (VIM-1) = assay type: cell-based, Klebsiella pneumoniae
# Source text: as §1
# KPM1097 (NDM, KPC) = assay type: cell-based, Klebsiella pneumoniae
# Source text: as §1
compound,measurement,setting,value
"C[C@@H](O)[C@H]1C(=O)N2C(C(=O)O)=C(SCCN=CN)C[C@H]12 [Imipenem, reference compound]",MIC,ECM6711 (pUCP24-VIM-1),> 1 µg/mL
same,Carbapenem MIC alone,"EA1019 (SHV-5, VIM-1)",Z (key: X: MIC of less than 1 μg/mL; Y: MIC of 1 μg/mL to 10 μg/mL; Z: MIC of greater than 10 μg/mL)
same,Carbapenem MIC alone,"KPM1099 (NDM, KPC)",Z (key: X: MIC of less than 1 μg/mL; Y: MIC of 1 μg/mL to 10 μg/mL; Z: MIC of greater than 10 μg/mL)
same,Carbapenem MIC alone,"KPM1109 (NDM, KPC)",Z (key: X: MIC of less than 1 μg/mL; Y: MIC of 1 μg/mL to 10 μg/mL; Z: MIC of greater than 10 μg/mL)
same,Carbapenem MIC alone,"KPM1110 (NDM, KPC)",Z (key: X: MIC of less than 1 μg/mL; Y: MIC of 1 μg/mL to 10 μg/mL; Z: MIC of greater than 10 μg/mL)
same,Carbapenem MIC alone,"KP1014 (Vim-1, TEM, SHV)",Z (key: X: MIC of less than 1 μg/mL; Y: MIC of 1 μg/mL to 10 μg/mL; Z: MIC of greater than 10 μg/mL)
same,Carbapenem MIC alone,KP1097 (IMP-1 SHV),Y (key: X: MIC of less than 1 μg/mL; Y: MIC of 1 μg/mL to 10 μg/mL; Z: MIC of greater than 10 μg/mL)
same,Carbapenem MIC alone,"KP1065 (VIM-1, SHV-11)",Y (key: X: MIC of less than 1 μg/mL; Y: MIC of 1 μg/mL to 10 μg/mL; Z: MIC of greater than 10 μg/mL)
same,Carbapenem MIC alone,KPM1123 (KPC-2 TEM SHV),Z (key: X: MIC of less than 1 μg/mL; Y: MIC of 1 μg/mL to 10 μg/mL; Z: MIC of greater than 10 μg/mL)
same,Carbapenem MIC alone,"KPM1111 (NDM, KPC)",Z (key: X: MIC of less than 1 μg/mL; Y: MIC of 1 μg/mL to 10 μg/mL; Z: MIC of greater than 10 μg/mL)
same,Carbapenem MIC alone,[1],Z (key: X: MIC of less than 1 μg/mL; Y: MIC of 1 μg/mL to 10 μg/mL; Z: MIC of greater than 10 μg/mL)
same,Carbapenem MIC alone,[2],Z (key: X: MIC of less than 1 μg/mL; Y: MIC of 1 μg/mL to 10 μg/mL; Z: MIC of greater than 10 μg/mL)
same,Carbapenem MIC alone,"KP1059 (VIM-1, SHV-11)",Z (key: X: MIC of less than 1 μg/mL; Y: MIC of 1 μg/mL to 10 μg/mL; Z: MIC of greater than 10 μg/mL)
same,Carbapenem MIC alone,KP1061 (KPC TEM SHV),Z (key: X: MIC of less than 1 μg/mL; Y: MIC of 1 μg/mL to 10 μg/mL; Z: MIC of greater than 10 μg/mL)
same,Carbapenem MIC alone,KP1004 (KPC TEM SHV),Z (key: X: MIC of less than 1 μg/mL; Y: MIC of 1 μg/mL to 10 μg/mL; Z: MIC of greater than 10 μg/mL)
same,Carbapenem MIC alone,KPM1345 (VIM-1 SHV),Y (key: X: MIC of less than 1 μg/mL; Y: MIC of 1 μg/mL to 10 μg/mL; Z: MIC of greater than 10 μg/mL)
same,Carbapenem MIC alone,KP1064 (KPC TEM SHV),Z (key: X: MIC of less than 1 μg/mL; Y: MIC of 1 μg/mL to 10 μg/mL; Z: MIC of greater than 10 μg/mL)
same,Carbapenem MIC alone,[3],Z (key: X: MIC of less than 1 μg/mL; Y: MIC of 1 μg/mL to 10 μg/mL; Z: MIC of greater than 10 μg/mL)
same,Carbapenem MIC alone,"KP1054 (VIM-1, SHV-11)",Y (key: X: MIC of less than 1 μg/mL; Y: MIC of 1 μg/mL to 10 μg/mL; Z: MIC of greater than 10 μg/mL)
same,Carbapenem MIC alone,"KPM1107 (NDM, KPC)",Z (key: X: MIC of less than 1 μg/mL; Y: MIC of 1 μg/mL to 10 μg/mL; Z: MIC of greater than 10 μg/mL)
same,Carbapenem MIC alone,"KPM1108 (NDM, KPC)",Z (key: X: MIC of less than 1 μg/mL; Y: MIC of 1 μg/mL to 10 μg/mL; Z: MIC of greater than 10 μg/mL)
same,Carbapenem MIC alone,KPM1344 (VIM-1),Z (key: X: MIC of less than 1 μg/mL; Y: MIC of 1 μg/mL to 10 μg/mL; Z: MIC of greater than 10 μg/mL)
same,Carbapenem MIC alone,"KPM1097 (NDM, KPC)",Z (key: X: MIC of less than 1 μg/mL; Y: MIC of 1 μg/mL to 10 μg/mL; Z: MIC of greater than 10 μg/mL)
